Reference: ChEMBL document CHEMBL5465560, “Selectivity Literature for EUbOPEN Chemogenomic Library” (2024)

Assays:
[1] = molecular target: T1, Serine/threonine-protein kinase LATS1 (Homo sapiens) (UniProt O95835); experiment: Selectivity interaction (KinomeScan (DiscoverX)) EUB0001049a LATS1; conditions: at 1 µM
T1 sequence (whole entry): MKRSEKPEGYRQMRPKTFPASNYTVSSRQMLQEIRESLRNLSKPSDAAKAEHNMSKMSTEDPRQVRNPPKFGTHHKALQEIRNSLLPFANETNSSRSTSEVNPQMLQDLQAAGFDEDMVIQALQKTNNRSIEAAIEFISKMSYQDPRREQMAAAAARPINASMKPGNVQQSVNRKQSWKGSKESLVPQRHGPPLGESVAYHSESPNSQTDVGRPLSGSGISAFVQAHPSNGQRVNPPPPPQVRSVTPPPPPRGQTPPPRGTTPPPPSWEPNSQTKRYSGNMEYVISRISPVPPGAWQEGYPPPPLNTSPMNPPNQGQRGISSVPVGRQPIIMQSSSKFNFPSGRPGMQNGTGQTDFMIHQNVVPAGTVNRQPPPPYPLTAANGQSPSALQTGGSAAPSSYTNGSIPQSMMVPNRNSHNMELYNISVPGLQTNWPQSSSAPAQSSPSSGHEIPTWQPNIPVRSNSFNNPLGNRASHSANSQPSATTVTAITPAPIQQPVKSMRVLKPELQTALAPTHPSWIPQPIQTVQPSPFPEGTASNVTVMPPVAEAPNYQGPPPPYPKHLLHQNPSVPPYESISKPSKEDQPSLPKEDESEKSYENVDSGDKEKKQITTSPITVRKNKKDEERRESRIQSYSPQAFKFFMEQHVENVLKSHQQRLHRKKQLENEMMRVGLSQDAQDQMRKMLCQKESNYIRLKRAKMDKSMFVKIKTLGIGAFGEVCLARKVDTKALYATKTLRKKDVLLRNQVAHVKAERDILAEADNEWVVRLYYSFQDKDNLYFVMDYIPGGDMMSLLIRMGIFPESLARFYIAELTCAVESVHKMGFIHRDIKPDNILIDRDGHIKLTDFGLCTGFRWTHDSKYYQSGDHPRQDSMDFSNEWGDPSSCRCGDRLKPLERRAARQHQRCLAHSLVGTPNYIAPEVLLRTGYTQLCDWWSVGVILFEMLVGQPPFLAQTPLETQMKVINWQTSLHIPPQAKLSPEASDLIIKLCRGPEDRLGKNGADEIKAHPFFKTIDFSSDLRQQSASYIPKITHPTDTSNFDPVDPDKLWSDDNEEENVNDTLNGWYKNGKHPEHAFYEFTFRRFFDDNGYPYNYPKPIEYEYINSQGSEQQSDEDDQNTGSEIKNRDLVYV

[2] = molecular target: T2, Cyclin-dependent kinase 11A (Homo sapiens) (UniProt Q9UQ88); experiment: Selectivity interaction (ActivX KiNativ screen (kinase selectivity in THP-1 cell lysates)) EUB0000639a CDK11A; format: subcellular; conditions: lysate, at 0.01 µM
T2 sequence (whole entry): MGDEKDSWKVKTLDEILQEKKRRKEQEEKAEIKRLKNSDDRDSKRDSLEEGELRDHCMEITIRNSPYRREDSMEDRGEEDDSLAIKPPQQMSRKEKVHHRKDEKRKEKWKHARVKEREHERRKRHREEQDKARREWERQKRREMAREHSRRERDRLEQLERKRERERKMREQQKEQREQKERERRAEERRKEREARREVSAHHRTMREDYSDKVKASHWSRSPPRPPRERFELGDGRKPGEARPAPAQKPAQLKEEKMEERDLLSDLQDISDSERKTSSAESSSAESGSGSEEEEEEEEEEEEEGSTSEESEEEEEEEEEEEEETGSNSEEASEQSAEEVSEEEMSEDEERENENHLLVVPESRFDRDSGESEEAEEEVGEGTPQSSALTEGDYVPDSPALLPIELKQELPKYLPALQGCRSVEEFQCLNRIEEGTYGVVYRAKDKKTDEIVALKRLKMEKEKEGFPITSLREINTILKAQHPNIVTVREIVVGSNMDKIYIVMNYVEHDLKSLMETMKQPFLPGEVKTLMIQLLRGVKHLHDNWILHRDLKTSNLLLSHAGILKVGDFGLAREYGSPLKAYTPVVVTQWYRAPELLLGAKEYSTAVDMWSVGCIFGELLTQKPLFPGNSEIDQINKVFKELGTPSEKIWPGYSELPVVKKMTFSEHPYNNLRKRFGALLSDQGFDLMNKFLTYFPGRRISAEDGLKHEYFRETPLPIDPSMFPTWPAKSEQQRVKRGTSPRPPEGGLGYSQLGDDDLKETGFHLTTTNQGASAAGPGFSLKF

[3] = molecular target: T3, Serine/threonine-protein kinase Sgk2 (Homo sapiens) (UniProt Q9HBY8); experiment: Selectivity interaction (Kinase screening (Nanosyn)) EUB0000604a SGK2
T3 sequence (whole entry): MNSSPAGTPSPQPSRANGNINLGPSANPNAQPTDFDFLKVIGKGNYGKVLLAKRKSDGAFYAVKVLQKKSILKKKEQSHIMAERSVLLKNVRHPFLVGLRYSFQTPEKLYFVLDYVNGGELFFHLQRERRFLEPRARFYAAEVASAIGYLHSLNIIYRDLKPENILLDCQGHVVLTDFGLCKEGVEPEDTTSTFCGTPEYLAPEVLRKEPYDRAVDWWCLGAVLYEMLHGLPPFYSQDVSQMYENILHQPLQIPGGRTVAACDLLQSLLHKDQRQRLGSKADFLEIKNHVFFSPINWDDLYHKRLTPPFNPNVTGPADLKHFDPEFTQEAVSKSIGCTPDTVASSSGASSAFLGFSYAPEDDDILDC

[4] = molecular target: T4, Serine/threonine-protein kinase 17A (Homo sapiens) (UniProt Q9UEE5); experiment: Selectivity interaction (KinomeScan (DiscoverX)) EUB0000618a STK17A; conditions: at 10 µM
T4 sequence (whole entry): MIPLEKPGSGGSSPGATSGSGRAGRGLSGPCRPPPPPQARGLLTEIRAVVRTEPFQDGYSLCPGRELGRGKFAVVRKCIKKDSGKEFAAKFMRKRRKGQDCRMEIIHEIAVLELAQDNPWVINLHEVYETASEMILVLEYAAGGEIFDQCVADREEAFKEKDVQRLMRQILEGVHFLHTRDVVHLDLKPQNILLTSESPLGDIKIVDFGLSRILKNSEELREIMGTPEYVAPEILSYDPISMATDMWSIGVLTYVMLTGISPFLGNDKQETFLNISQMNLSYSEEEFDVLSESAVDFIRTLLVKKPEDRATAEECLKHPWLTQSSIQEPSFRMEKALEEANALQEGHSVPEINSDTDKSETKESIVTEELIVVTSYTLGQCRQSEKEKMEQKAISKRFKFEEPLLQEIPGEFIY

[5] = molecular target: Platelet-derived growth factor receptor beta (Homo sapiens, UniProt P09619); experiment: Selectivity interaction (Upstate Kinase Profiler service (Millipore)) EUB0000056c PDGFRB; conditions: at 1 µM
Sequence of Platelet-derived growth factor receptor beta (P09619 whole entry): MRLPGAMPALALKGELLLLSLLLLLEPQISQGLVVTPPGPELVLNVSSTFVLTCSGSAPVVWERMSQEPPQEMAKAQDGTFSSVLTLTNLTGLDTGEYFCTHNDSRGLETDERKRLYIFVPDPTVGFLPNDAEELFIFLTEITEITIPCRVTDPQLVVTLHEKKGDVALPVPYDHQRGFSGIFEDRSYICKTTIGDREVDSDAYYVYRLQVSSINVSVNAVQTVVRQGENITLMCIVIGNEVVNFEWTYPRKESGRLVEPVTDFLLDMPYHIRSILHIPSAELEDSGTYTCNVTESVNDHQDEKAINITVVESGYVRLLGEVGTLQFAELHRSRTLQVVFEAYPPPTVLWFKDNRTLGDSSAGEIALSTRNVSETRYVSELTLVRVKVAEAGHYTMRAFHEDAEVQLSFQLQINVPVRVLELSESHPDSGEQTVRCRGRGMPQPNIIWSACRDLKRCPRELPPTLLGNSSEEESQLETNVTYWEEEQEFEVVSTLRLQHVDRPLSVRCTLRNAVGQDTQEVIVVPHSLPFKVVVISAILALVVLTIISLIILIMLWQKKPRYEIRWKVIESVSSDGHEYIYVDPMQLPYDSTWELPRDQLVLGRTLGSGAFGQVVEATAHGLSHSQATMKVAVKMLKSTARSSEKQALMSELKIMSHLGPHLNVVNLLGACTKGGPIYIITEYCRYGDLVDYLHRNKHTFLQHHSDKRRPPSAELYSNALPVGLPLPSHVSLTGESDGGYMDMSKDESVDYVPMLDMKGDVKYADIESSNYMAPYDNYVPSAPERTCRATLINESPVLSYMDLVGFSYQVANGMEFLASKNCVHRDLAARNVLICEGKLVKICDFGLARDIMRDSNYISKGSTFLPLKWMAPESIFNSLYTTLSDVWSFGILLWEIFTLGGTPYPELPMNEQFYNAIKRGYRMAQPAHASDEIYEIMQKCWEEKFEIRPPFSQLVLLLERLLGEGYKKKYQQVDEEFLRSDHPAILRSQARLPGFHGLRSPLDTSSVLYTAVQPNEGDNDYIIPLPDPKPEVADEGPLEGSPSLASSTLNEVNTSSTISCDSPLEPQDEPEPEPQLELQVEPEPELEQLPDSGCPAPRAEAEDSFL

[6] = molecular target: CDK8/Cyclin C (Homo sapiens) (UniProt P49336+P24863); experiment: Selectivity interaction (ProQinase) EUB0000171b CDK8; format: protein-complex assay

**Q.** COc1cc(Nc2nc(C)cc(-c3cnn4nc(OC)ccc34)n2)cc(C(F)(F)F)c1 was tested. Which % of control [1] did it give?
**A.** 100%

**Q.** With CC[C@@H]1[C@H](F)C(=O)N[C@@H]1COc1nccc2cc(C(N)=O)c(OC)cc12 [ZIMLOVISERTIB] as the molecule, how does the % of inhibition [2] read?
**A.** 11.4%

**Q.** Cc1cnc(Nc2ccc(F)cc2Cl)nc1-c1c[nH]c(C(=O)N[C@H](CO)c2cccc(Cl)c2)c1 was tested. Which % of inhibition [3] did it give?
**A.** 41%

**Q.** With O[C@H]1CC[C@H](Nc2ncc3nc(Nc4c(F)cc(F)cc4F)n([C@H]4CCOC4)c3n2)CC1 as the molecule, how does the % of control [4] read?
**A.** 100%

**Q.** Cc1ccc(-c2ccc3c(ccc4sc5c(c43)NC[C@@H](C)NC5=O)n2)cn1 was tested. Which % of inhibition [5] did it give?
**A.** -4%

**Q.** With C=CC(=O)Nc1cccc(C(=O)Nc2ccc(Nc3cc(-c4[nH]c(SC)nc4C)ccn3)cc2)c1 as the molecule, how does the % of control ([6]; at 1 µM) read?
**A.** 67%

**Q.** And the % of control ([6]; at 5 µM)?
**A.** 29%
